From patent US20220151935A1, “USE OF AMINO ACID BASED NUTRIENTS AND PHARMACEUTICAL COMPOSITION CONTAINING THE SAME” (priority 2018, published 2022)
Read-outs that look alike come from different tables or passages of the source. Marks after values point to notes of the source that are not given here. Peptide text beside a SMILES is read from it.

What was measured:
[1] = tested on: human thyroid cancer cells (SW579); experiment: Tumor inhibition in nude mice bearing human thyroid cancer cells (SW579); details: Example 2; intratumoral 100 μl/mouse every 3 days x3; next day; avg tumor volume 103 mm^3
Procedure: (§3) The tumor growth inhibition rate (abbreviated as tumor inhibition rate in the present invention) is calculated through the following equation:
(§4) wherein TW is an average tumor weight of a study group; CW is an average tumor weight of a negative control group.
(§5) In the following experiments, the nude mice bearing human tumor cells and successfully modeled were randomly divided into 1 negative control group and 4 study groups (groups A, B, C, and D). The corresponding negative control was normal saline. The four study drugs were 20% arginine, 3% glutamic hydrochloride, 10% alanyl-glutamine, and 10% glutathione. Each group was injected intratumorally, once every 3 days, for a total of 3 times, each time with 100 μl/mouse. On the next day after the administration of drugs was ended, the animals were euthanized, the tumor weight was measured after anatomy, and the tumor inhibition rate was calculated from the respective negative control group.
(§6) In this series of experiments, successfully modeled nude mice bearing human cancer cells were randomly divided into 1 negative control group and 5 study groups (groups A, B, C, D and E). […] Each group was injected intratumorally, once every 3 days, for a total of 3 times, each time with 150 μl/mouse. On the next day after the administration was ended, the animals were euthanized, the tumor weight was measured after anatomy, and the tumor inhibition rate was calculated from the respective negative control group.
(§7) In this series of experiments, successfully modeled nude mice bearing human cancer cells were randomly divided into 1 negative control group and 6 study groups (groups A, B, C, D, E and F). […] Each group was injected intratumorally, once every 3 days, for a total of 3 times, each time with 100 μl/mouse. On the next day after the administration was ended, the animals were euthanized, the tumor weight was measured after anatomy, and the tumor inhibition rate was calculated from the respective negative control group.
(§8) In this series of experiments, successfully modeled nude mice bearing human cancer cells were randomly divided into 1 negative control group and 3 study groups. […] Each group was injected intratumorally, once every 3 days, for a total of 3 times, each time with 150 μl/mouse.

[2] = tested on: human stomach cancer cells (BGC823); experiment: Tumor inhibition in nude mice bearing human stomach cancer cells (BGC823); details: Example 2; intratumoral 100 μl/mouse every 3 days x3; next day; avg tumor volume 85 mm^3
Procedure: as §3, §4
(§9) In the following experiments, the nude mice bearing human tumor cells and successfully modeled were randomly divided into 1 negative control group and 4 study groups (groups A, B, C, and D). The corresponding negative control was normal saline. […] Each group was injected intratumorally, once every 3 days, for a total of 3 times, each time with 100 μl/mouse. On the next day after the administration of drugs was ended, the animals were euthanized, the tumor weight was measured after anatomy, and the tumor inhibition rate was calculated from the respective negative control group.
In this research experiment, successfully modeled nude mice bearing human stomach cancer cells (BGC823) (with an average tumor volume of 85 mm^3) were randomly divided into a negative control group and 4 study groups (groups A, B, C, and D).

[3] = tested on: human nasopharynx cancer cells (CNE1); experiment: Tumor inhibition in nude mice bearing human nasopharynx cancer cells (CNE1); details: Example 2; intratumoral 100 μl/mouse every 3 days x3; next day; avg tumor volume 78 mm^3
Procedure: as §3, §4, §9
In this research experiment, successfully modeled nude mice bearing human nasopharynx cancer cells (CNE1) (with an average tumor volume of 78 mm^3) were randomly divided into a negative control group and 4 study groups (groups A, B, C, and D).

[4] = tested on: pancreatic cancer cells PANC-1; details: once, 150 μl, next day, vs blank group
Procedure: Both groups A and B were administered the drugs once, with 150 μl each time. The next day after the administration of drug was ended, the 3 groups of animals were euthanized, and the tumors were dissected for histological observation.

[5] = tested on: human liver cancer cells (HepG2); experiment: Tumor weight and tumor inhibition in nude mice bearing HepG2; type: in vivo; details: for Intratumoral injection Tumor inhibition rate / Intratumoral injection Tumor weight / Tumor inhibition rate of intraperitoneal injection: 5th day after last dose
Procedure: (§1) One of the core characteristics of tumors is heterogeneity. […] The corresponding negative control was normal saline.
(§2) They were injected intraperitoneally and intratumorally.
The negative control group was given normal saline. The compositions of the study drug are as shown in the table below: 4 types and concentrations of amino acid based nutrient single drugs (X % amino acid based nutrients), 18 types and concentrations of ineffective absorption drugs (Y % ineffective absorption drugs), 24 compositions comprising various types and concentrations of amino acid based nutrients and ineffectively absorption drugs (X % amino acid based nutrients/Y % ineffectively absorption drugs).
The negative control was normal saline. The compositions of 16 study drugs, as shown in the table below, comprise: a 5-fluorouracil single drug of 4 varying concentrations (X % 5-fluorouracil), and an amino acid based nutrient with 5 varying concentrations (Y % amino acid based nutrient), 7 compositions consisting of 5-fluorouracil of varying concentrations and an amino acid based nutrient of varying concentrations (X % 5-fluorouracil/Y % amino acid based nutrient). […] The dose at each time was: 5-fluorouracil 50 mg/kg, glutathione ≤1 g/kg, and an injection volume was ≤150 μl/mouse.
The negative control was normal saline, the positive control was 1% 5-fluorouracil, and the study drug was 1% methylene blue/10% amino acid based nutrient composition (the type of the amino acid based nutrient is variable). The amino acid based nutrients in the compositions used in study groups 1-13 were: arginine, glycine, cysteine hydrochloride, valine, threonine, proline, histidine hydrochloride, phenylalanine, lysine, leucine, alanine, glutathione, serine, and the study drug used in the study group 14 was 1% methylene blue/5% arginine/5% glycine.

[6] = tested on: human prostate cancer cells (LNCaP/AR); experiment: Tumor inhibition in nude mice bearing human prostate cancer cells (LNCaP/AR); details: Example 2; intratumoral 100 μl/mouse every 3 days x3; next day; avg tumor volume 91 mm^3
Procedure: as §3, §4, §5
In this research experiment, successfully modeled nude mice bearing human prostate cancer cells (LNCaP/AR) (with an average tumor volume of 91 mm^3) were randomly divided into a negative control group and 4 study groups (groups A, B, C, and D).
as §6, §7
In this series of experiments, successfully modeled nude mice bearing human cancer cells were randomly divided into 1 negative control group and 3 study groups. […] Each group was injected intratumorally, once every 3 days, for a total of 3 times, each time with 150 μl/mouse. On the fifth day after the administration was ended, the animals were euthanized, the tumor weight was measured after anatomy, and the tumor inhibition rate was calculated from the respective negative control group.

[7] = tested on: human lung cancer cells (A549); experiment: Tumor inhibition in nude mice bearing human lung cancer cells (A549); details: Example 2; intratumoral 100 μl/mouse every 3 days x3; next day; avg tumor volume 83 mm^3
Procedure: as §3, §4, §9
In this research experiment, successfully modeled nude mice bearing human lung cancer cells (A549) (with an average tumor volume of 83 mm^3) were randomly divided into a negative control group and 4 study groups (groups A, B, C, and D).

[8] = tested on: pancreatic cancer cells PANC-1; experiment: Tumor inhibition in nude mice bearing pancreatic cancer cells PANC-1; type: in vivo; details: for Tumor inhibition rate of intraperitoneal injection / Tumor inhibition rate of intratumoral injection: Table 3, avg tumor volume 105 mm^3, 100 μl/mouse every 3 days x3, next day after last dose; for Tumor inhibition rate: Table 4, avg tumor volume 136 mm^3, intratumoral every 3 days x3, ≤150 μl, next day
Procedure: as §2
After anatomy, the tumor weight was measured and the tumor inhibition rate was calculated.

[9] = tested on: human head and neck cancer cells (Fμda); experiment: Tumor inhibition in nude mice bearing human head and neck cancer cells (Fμda); type: in vivo; details: Example 2; intratumoral 100 μl/mouse every 3 days x3; next day; avg tumor volume 109 mm^3
From the text: as §1

HepG2 = experiment: Intratumoral tissue destruction, histological observation of HepG2 tumors; details: Table 7; intratumoral injection, once, ≤130 μl/mouse; next day; scale 0 = blank control, 5 = 5% acetic acid
Procedure: The negative control group was given normal saline, and the compositions and injection methods of the 5 study drugs are shown in the table below. […] Each group was administered once, with an injection dose of ≤130 μl/mouse. On the next day after the administration was ended, the animals were euthanized, and the tumor was dissected for histological observation.
The negative control groups were given normal saline, and the compositions and injection methods of the 5 study drugs are shown in the table below. […] Each group was administered once, with an injection dose of ≤130 μl/mouse. On the next day after the administration was ended, the animals were euthanized, and the tumor was dissected for histological observation.

[10] = tested on: human breast cancer cells (MDA-MB231); experiment: Tumor inhibition in nude mice bearing human breast cancer cells (MDA-MB231); details: Example 2; intratumoral 100 μl/mouse every 3 days x3; next day; avg tumor volume 71 mm^3
Procedure: as §3, §4, §5
In this research experiment, successfully modeled nude mice bearing human breast cancer cells (MDA-MB231) (with an average tumor volume of 71 mm^3) were randomly divided into a negative control group and 4 study groups (groups A, B, C, and D).
Each group was injected intratumorally, once every 3 days, for a total of 3 times, each time with 150 μl/mouse. On the next day after the administration was ended, the animals were euthanized, the tumor weight was measured after anatomy, and the tumor inhibition rate was calculated from the respective negative control group.
Each group was injected intratumorally, once every 3 days, for a total of 3 times, each time with 100 μl/mouse. On the next day after the administration was ended, the animals were euthanized, the tumor weight was measured after anatomy, and the tumor inhibition rate was calculated from the respective negative control group.

[11] = tested on: human ovary cancer cells (PA1); experiment: Tumor inhibition in nude mice bearing human ovary cancer cells (PA1); details: Example 2; intratumoral 100 μl/mouse every 3 days x3; next day; avg tumor volume 104 mm^3
Procedure: as §3, §4, §5, §6, §7, §8

breast cancer 4T1 cells = experiment: Tumor weight and tumor inhibition in BALB/c mice bearing breast cancer 4T1 cells; details: for Intratumoral injection Tumor inhibition rate / Intratumoral injection Tumor weight: Table 10, avg tumor volume 336 mm^3, 150 μl/mouse every 3 days x3, 5th day after last dose;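 on all read-outs here: subcutaneous grafts in the right axilla, tumors excised and weighed after euthanasia, inhibition rate derived from group mean tumor weight versus the negative control group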
Procedure: In the following examples, unless otherwise specified, animal tests of subcutaneous transplantation tumors were performed in accordance with test guidelines issued by a drug administration authority. […] The subcutaneous transplantation was carried out according to a conventional method for subcutaneous inoculation of tumor cells. […] Items to be observed, measured and analyzed in the experiments included general status, body weight, food intake, tumor volume, tumor weight, thymus weight, spleen weight, and the like.
as §3, §4
The effects of the co-use of drugs (including efficacy and safety) can theoretically be based on the judgment of q:
q=actual combined effect/theoretical expected effect of simple addition.
When q=1, the actual combined effect meets the theoretical expectation, showing an additive effect; when q<1, the actual combined effect is weaker than the theoretical expectation, showing an antagonistic effect; and when q>1, the actual combined effect exceeds the theoretical expectation, showing a synergic effect. Unless otherwise specified, single-use efficacy of A or B (denoted as EA and EB respectively) and the actual combined efficacy of A/B (denoted as EA+B) are both tumor inhibition rates.
In one experiment, the test animal was a BALB/c mouse, the modeling cells were breast cancer 4T1 cells, and the transplantation tumor was modeled at 1×10^6 cells/mouse under the skin of the animal's right axilla. […] The experimental groups were divided into 1 negative control group (group 0) and 13 study groups (groups 1-13). They were all injected intratumorally. […] Each group was administered once every 3 days for a total of 3 times, each time at an injection dose of 150 μl//mouse. During the administration, general state of the animals and the degree of necrosis of normal tissues around the tumor after the administration were observed. On the 5th day after the administration was ended, the animals were euthanized, and the tumor weight was measured after anatomy to the animals. The tumor inhibition rate was calculated from the negative control group of each administration mode.
In another experiment, the test animal was a BALB/c mouse, the modeling cells were breast cancer 4T1 cells, and the transplantation tumor was modeled at 1×10^6 cells/mouse under the skin of the animal's right axilla. […] Each group was administered by intratumoral injection once every 3 days for a total of 3 times, each time at an injection dose of 150 μl/mouse. On the 5th day after the administration was ended, the animals were euthanized, and the tumor weight was measured after anatomy to the animals. The tumor inhibition rate was calculated from the negative control group.
In another experiment, the test animal was BALB/c mice, the modeling cells were breast cancer 4T1 cells, and the transplantation tumor was modeled at 1×10^6 cells/mouse under the skin of the animal's right axilla. […] Each group was administered by intratumoral injection once every 3 days for a total of 3 times, each time at an injection dose of 150 μl/mouse. On the 5th day after the administration was ended, the animals were euthanized, and the tumor weight was measured after anatomy to the animals. The tumor inhibition rate was calculated from the negative control group.
In another experiment, the test animal was a BALB/c mouse, the modeling cells were breast cancer 4T1 cells, and the transplantation tumor under the skin of the animal's right axilla was modeled at 1×10^6 cells/mouse.

[12] = pH of the drug composition; type: physicochemical; details: aqueous solution
hyperthyroidism = experiment: Hyperthyroidism model in rats (levothyroxine); details: first experiment, 25th day after administration, RIA
Procedure: Taking hyperthyroidism as a model, the model was built with levothyroxine (intraperitoneal injection, with a dose of 50 μg/100 g body weight, for consecutive 10 days). […] Administration was started on the day of grouping. The negative control was a normal saline spray, and the positive control was methimazole. […] Both the negative control group and the study group were injected once every 1 days in the swollen area, with 150 μl/mouse each time, for a total of 8 times.
The observed, measured and analyzed items in the experiment included serological examination and thyroid pathological examination on the day of administration and the 16th day after the administration, in addition to the regular food intake, body weight, and general state. The serological examination employed radioimmunoassay (RIA) to determine concentrations of serum T3, T4 and thyroid-stimulating hormone (TSH). The pathological examination observed thyroid morphology, follicular morphology, epithelial cell morphology, and interlobular fibrous tissue morphology.

[13] = Example 2, intratumoral 100 μl/mouse every 3 days x3, next day, avg tumor volume 81 mm^3
[14] = Table 6, avg tumor volume 153 mm^3, ≤120 μl/mouse every 3 days x3
[15] = Table 8, avg tumor volume 175 mm^3, ≤150 μl/mouse every 3 days x3
[16] = Table 16, avg tumor volume 169 mm^3, intratumoral every 3 days x3, ≤150 μl/mouse, 5th day
[17] = Table 12, avg tumor volume 317 mm^3, intratumoral 150 μl/mouse every 3 days x3, 5th day
[18] = Table 14, avg tumor volume 325 mm^3, intratumoral 150 μl/mouse every 3 days x3, 5th day
[19] = Table 17, avg tumor volume 317 mm^3, intratumoral 150 μl/mouse every 3 days x3, fifth day
[20] = Table 11, avg tumor volume 164 mm^3, intratumoral every 3 days x3, ≤150 μl, fifth day after last dose
[21] = Table 13, avg tumor volume 307 mm^3, intratumoral 150 μl/mouse every 3 days x3, 5th day

## N[C@@H](CCC(=O)N[C@@H](CS)C(=O)NCC(=O)O)C(=O)O [10% glutathione, Reduced glutathione]
[1]
  Tumor inhibition rate: 61%
[2]
  Tumor inhibition rate: 59%
[3]
  Tumor inhibition rate: 61%
[4]; intraperitoneal injection
  histological observation of the tumor: no obvious difference between group A and the blank group
[4]; intratumoral injection
  histological observation of the tumor: obvious intratumoral tissue destruction
[5]; [13]
  Tumor inhibition rate: 61%
[5]; [14]
  Intratumoral injection Tumor inhibition rate: 58%
  Intratumoral injection Tumor weight: 0.97 ± 0.24 g
  Tumor inhibition rate of intraperitoneal injection: 3%
[5]; [15]
  Intratumoral injection Tumor inhibition rate: 59%
  Intratumoral injection Tumor weight: 1.04 ± 0.23 g
  Tumor inhibition rate of intraperitoneal injection: 1%
[5]; [16]
  Tumor inhibition rate: (62%)
[6]
  Tumor inhibition rate: 65%
[7]
  Tumor inhibition rate: 59%
[8]
  Tumor inhibition rate of intraperitoneal injection: 51%
  Tumor inhibition rate of intratumoral injection: 3%
  Tumor inhibition rate: 57%
[9]
  Tumor inhibition rate: 53%
HepG2
  Intratumoral tissue destruction: 1
[10]
  Tumor inhibition rate: 64%
[11]
  Tumor inhibition rate: 67%

## N=C(N)NCCC[C@H](N)C(=O)O [20% arginine, L-arginine]
Breast cancer 4T1 cells
  Intratumoral injection Tumor inhibition rate: 33%
  Intratumoral injection Tumor weight: 0.86 ± 0.23 g
Breast cancer 4T1 cells; [17]
  Tumor inhibition rate: 27%
  Tumor weight (x ± s): 1.72 g
Breast cancer 4T1 cells; [18]
  Tumor inhibition rate: 28%
  Tumor weight (x ± s): 1.75 ± 0.29 g
Breast cancer 4T1 cells; [19]
  Tumor inhibition rate: 34%
  Tumor weight: 1.03 ± 0.29 g
[1]
  Tumor inhibition rate: 62%
[2]
  Tumor inhibition rate: 52%
[3]
  Tumor inhibition rate: 63%
[12]; Table 14
  Drug pH: 10.8
[5]; [13]
  Tumor inhibition rate: 63%
[5]; [15]
  Intratumoral injection Tumor inhibition rate: 61%
  Intratumoral injection Tumor weight: 0.99 ± 0.21 g
  Tumor inhibition rate of intraperitoneal injection: 5%
[5]; [20]
  Tumor inhibition rate: (60%)
[5]; [16]
  Tumor inhibition rate: (61%)**
[6]
  Tumor inhibition rate: 55%
[7]
  Tumor inhibition rate: 53%
[8]
  Tumor inhibition rate of intraperitoneal injection: 56%
  Tumor inhibition rate of intratumoral injection: 5%
  Tumor inhibition rate: 61%
[9]
  Tumor inhibition rate: 56%
[10]
  Tumor inhibition rate: 55%
[11]
  Tumor inhibition rate: 56%

## O=C([O-])O.[Na+] [10% sodium bicarbonate, sodium bicarbonate]
Breast cancer 4T1 cells; [21]
  Tumor inhibition rate: 30%
  Tumor weight (g) (x ± s): 1.58 ± 0.22 g
[12]; Table 13
  Drug pH: 6.8

## Cl.N[C@@H](CCC(=O)O)C(=O)O [3% glutamic hydrochloride, L-glutamic hydrochloride]
[1]
  Tumor inhibition rate: 63%
[2]
  Tumor inhibition rate: 57%
[3]
  Tumor inhibition rate: 68%
[5]; [13]
  Tumor inhibition rate: 62%
[5]; [16]
  Tumor inhibition rate: (70%)
[6]
  Tumor inhibition rate: 59%
[7]
  Tumor inhibition rate: 57%
[8]
  Tumor inhibition rate of intraperitoneal injection: 68%
  Tumor inhibition rate of intratumoral injection: 5%
[8]; hydrochloride
  Tumor inhibition rate: 69%
[9]
  Tumor inhibition rate: 58%
[10]
  Tumor inhibition rate: 61%
[11]
  Tumor inhibition rate: 61%

## [Na+].[OH-] [1% NaOH, sodium hydroxide]
Breast cancer 4T1 cells
  Intratumoral injection Tumor inhibition rate: 41%
  Intratumoral injection Tumor weight: 0.76 ± 0.24 g
Breast cancer 4T1 cells; [17]
  Tumor inhibition rate: 41%
  Tumor weight (x ± s): 1.39 g
Breast cancer 4T1 cells; [18]
  Tumor inhibition rate: 42%
  Tumor weight (x ± s): 1.41 ± 0.23 g
[12]; Table 14
  Drug pH: 11.8

## Cn1cc[nH]c1=S [Thiamazole, methimazole]
hyperthyroidism; negative control 1.9±0.1, blank 0.8±0.1
  serum T3: 1.1±0.1
hyperthyroidism; negative control 171.2±9.3, blank 39.6±3.1
  serum T4: 66.3±3.6

## C[C@H](N)C(=O)N[C@@H](CCC(N)=O)C(=O)O [10% ALA-GLN, Alanyl-glutamine dipeptide] (H-Ala-Gln-OH)
[1]
  Tumor inhibition rate: 59%
[2]
  Tumor inhibition rate: 51%
[3]
  Tumor inhibition rate: 63%
[5]; [13]
  Tumor inhibition rate: 56%
[6]
  Tumor inhibition rate: 61%
[7]
  Tumor inhibition rate: 52%
[8]
  Tumor inhibition rate of intraperitoneal injection: 53%
  Tumor inhibition rate of intratumoral injection: 2%
[9]
  Tumor inhibition rate: 51%
[10]
  Tumor inhibition rate: 57%
[11]
  Tumor inhibition rate: 62%

## CC(=O)O [5% acetic acid, acetic acid, reference compound]
[5]; [20]
  Tumor inhibition rate: (71%)
HepG2
  Intratumoral tissue destruction: 5

## O=C([O-])O.[Na+] [5% sodium bicarbonate, sodium bicarbonate]
Breast cancer 4T1 cells; [21]
  Tumor inhibition rate: 21%
  Tumor weight (g) (x ± s): 1.79 ± 0.24 g
[12]; Table 13
  Drug pH: 6.9
